Counter-ions that a name gives are not always drawn.
These molecules were tested against MTH1 (Homo sapiens, UniProt P36639) (assay: MTH1 enzymatic assay and IC50 value determination (malachite green)). Details: MTH1 4.8 nM, dGTP 100 μM, 15 minutes at 22° C.; group: between 2 μM and 10 μM.
Type: biochemical
Description: MTH1 Enzymatic Assay and IC50 Value Determination
MTH1 catalyzes the hydrolysis of dGTP to dGMP and PPi. By coupling the reaction to pyrophosphatase added in excess PPi is converted to Pi that can be detected by using the malachite green assay reagent. Briefly, for IC50 value determination the compound to be analyzed is diluted in assay buffer in a 1:3 dilution series generating 12 different compound concentrations giving a final DMSO concentration of 1% in the assay well. MTH1 diluted in assay buffer (100 mM Tris-acetate, 40 mM NaCl, 10 mM magnesium acetate, 1 mM DTT and 0.005% Tween 20) fortified with E. coli pyrophosphatase (0.8 U/ml) is added to a final concentration of 4.8 nM. dGTP diluted in assay buffer is added to a final concentration of 100 μM. The reaction mixture is incubated with shaking for 15 minutes at 22° C. To 100 μl reaction mixture is 25 μl Malachite green assay regent (0.095% Malachite green in 17% H2SO4, 1.5% Ammonium molybdate, 0.17% Tween 20) added followed by incubation with shaking for 15 minutes at 22° C.
The absorbance of the assay plate is read at 630 nm using an EnVision Multilabel plate reader. The IC50 value is determined by fitting a dose response curve to the data points using nonlinear regression analysis and the equation Y=Bottom+(Top−Bottom)/(1+10^((Log IC50−X)*HillSlope)), where Y is the read absorbance at 630 nm and X is log [compound].

| SMILES | IC50 [nM] |
| --- | --- |
| CC(C)(C)Nc1cc(-c2cccc(C(F)(F)F)c2)nc(N)n1 [Example 20, 4-N-tert-butyl-6-[3-(trifluoromethyl)phenyl]pyrimidine-2,4-diamine] | 2000 to 10000 |
| Cc1cccc(-c2cc(NCCN3CCCCC3)nc(N)n2)c1C [Example 112, 6-(2,3-dimethylphenyl)-4-N-[2-(piperidin-1-yl)ethyl]pyrimidine-2,4-diamine] | 2000 to 10000 |
| CCCNc1cc(-c2ccc(S(C)(=O)=O)cc2)nc(N)n1 [Example 5, 6-(4-methanesulfonylphenyl)-4-N-propylpyrimidine-2,4-diamine] | 2000 to 10000 |
| CCOC(=O)CNc1cc(-c2cccc(C)c2C)nc(N)n1 [Example 396, Ethyl 2-{[2-amino-6-(2,3-dimethylphenyl)pyrimidin-4-yl]amino}acetate] | 2000 to 10000 |

Same assay, conditions: MTH1 4.8 nM, dGTP 100 μM, 15 minutes at 22° C.; group: less than 200 nM

| SMILES | IC50 [nM] |
| --- | --- |
| Cc1cc(-c2cc(NCCc3ccc(S(N)(=O)=O)cc3)nc(N)n2)c(C)cc1F [Example 439, 4-(2-{[2-amino-6-(4-fluoro-2,5-dimethylphenyl)pyrimidin-4-yl]amino}ethyl)benzene-1-sulfonamide] | < 200 |
| Cc1cccc(-c2cc(NCCNc3cccnc3)nc(N)n2)c1C [Example 454, 6-(2,3-dimethylphenyl)-4-N-{2-[(pyridin-3-yl)amino]ethyl}pyrimidine-2,4-diamine] | < 200 |
| Cc1cccc(-c2cc(NCCCNC(=O)c3cccc(Br)c3)nc(N)n2)c1C [Example 367, N-(3-{[2-Amino-6-(2,3-dimethylphenyl)pyrimidin-4-yl]amino}propyl)-3-bromobenzamide] | < 200 |
| CNc1cc(-c2cc(C)c(F)cc2Cl)nc(N)n1 [Example 215, 6-(2-chloro-4-fluoro-5-methylphenyl)-4-N-methylpyrimidine-2,4-diamine] | < 200 |
| CNc1cc(-c2ccc(C=O)cc2)nc(N)n1 [Example 108, 4-[2-amino-6-(methylamino)pyrimidin-4-yl]benzaldehyde] | < 200 |
| Cc1ccc(Cl)cc1-c1cc(NC2CC2)nc(N)n1 [Example 219, 6-(5-chloro-2-methylphenyl)-4-N-cyclopropylpyrimidine-2,4-diamine] | < 200 |
| Cc1cccc(-c2cc(NCCNC(=O)OCc3ccccc3)nc(N)n2)c1C [Example 273, benzyl N-(2-{[2-amino-6-(2,3-dimethylphenyl)pyrimidin-4-yl]amino}ethyl)-carbamate] | < 200 |
| Cc1cccc(-c2cc(NCCOc3ccc(C#N)cc3)nc(N)n2)c1C [Example 335, 4-(2-{[2-Amino-6-(2,3-dimethylphenyl)pyrimidin-4-yl]amino}ethoxy)benzonitrile] | < 200 |
| CNc1cc(-c2cccc3c2cnn3C)nc(N)n1 [Example 90, 4-N-methyl-6-(1-methyl-1H-indazol-4-yl)pyrimidine-2,4-diamine] | < 200 |
| Cc1cccc(-c2cc(NCCCc3ccccc3)nc(N)n2)c1C [Example 131, 6-(2,3-dimethylphenyl)-4-N-(3-phenylpropyl)pyrimidine-2,4-diamine] | < 200 |
| CNc1cc(-c2ccc3c(ccn3S(=O)(=O)c3ccccc3)c2)nc(N)n1 [Example 31, 6-[1-(benzenesulfonyl)-1H-indol-5-yl]-4-N-methylpyrimidine-2,4-diamine] | < 200 |
| CNc1cc(-c2cc(F)ccc2C(F)(F)F)nc(N)n1 [Example 208, 6-[5-fluoro-2-(trifluoromethyl)phenyl]-4-N-methylpyrimidine-2,4-diamine] | < 200 |
| Nc1nc(NC2CCCC2)cc(-c2cccc(Cl)c2Cl)n1 [Example 65, 4-N-cyclopentyl-6-(2,3-dichlorophenyl)pyrimidine-2,4-diamine] | < 200 |
| Nc1nc(NCCc2ccc(S(N)(=O)=O)cc2)cc(-c2ccc(F)c(F)c2F)n1 [Example 434, 4-(2-{[2-amino-6-(2,3,4-trifluorophenyl)pyrimidin-4-yl]amino}ethyl)benzene-1-sulfonamide] | < 200 |
| CNc1cc(-c2cccc(C)c2Cl)nc(N)n1 [Example 226, 6-(2-chloro-3-methylphenyl)-4-N-methylpyrimidine-2,4-diamine] | < 200 |
| CNc1cc(-c2ccc(OC(F)(F)F)cc2)nc(N)n1 [Example 81, 4-N-methyl-6-[4-(trifluoromethoxy)phenyl]pyrimidine-2,4-diamine] | < 200 |
| CNc1cc(-c2cccc(NC(=O)C(O)c3ccc(Cl)cc3)c2)nc(N)n1 (stereo not drawn) [Example 323, N-{3-[2-Amino-6-(methylamino)pyrimidin-4-yl]phenyl}-2-(4-chlorophenyl)-2-hydroxyacetamide] | < 200 |
| [2H]C([2H])([2H])Nc1cc(-c2cccc(C)c2Cl)nc(N)n1 [Example 422, 6-(2-chloro-3-methylphenyl)-4-N—(^2H3)methylpyrimidine-2,4-diamine] | < 200 |
| Cc1cccc(-c2cc(NCC3CCCN(c4ncccn4)C3)nc(N)n2)c1C (stereo not drawn) [Example 350, 6-(2,3-Dimethylphenyl)-4-N-{[1-(pyrimidin-2-yl)piperidin-3-yl]methyl}pyrimidine-2,4-diamine] | < 200 |

| SMILES | IC50 [nM] |
| --- | --- |
| CNc1cc(-c2cc(Cl)ccc2C)nc(N)n1 [Example 74, 6-(5-chloro-2-methylphenyl)-4-N-methylpyrimidine-2,4-diamine] | < 200 |
| Cc1cccc(-c2cc(NCCCNS(=O)(=O)c3cccc(S(C)(=O)=O)c3)nc(N)n2)c1C [Example 402, N-(3-{[2-Amino-6-(2,3-dimethylphenyl)pyrimidin-4-yl]amino}propyl)-3-methanesulfonylbenzene-1-sulfonamide] | < 200 |
| Cc1cccc(-c2cc(NCCc3cccc(O)c3)nc(N)n2)c1C [Example 269, 3-(2-{[2-amino-6-(2,3-dimethylphenyl)pyrimidin-4-yl]amino}ethyl)phenol] | < 200 |
| Cc1cccc(-c2cc(NCCCNS(=O)(=O)c3cn(C)c(C)n3)nc(N)n2)c1C [Example 391, N-(3-{[2-Amino-6-(2,3-dimethylphenyl)pyrimidin-4-yl]amino}propyl)-1,2-dimethyl-1H-imidazole-4-sulfonamide] | < 200 |
| Nc1nc(NC2CCCCC2)cc(-c2cccc(Cl)c2Cl)n1 [Example 175, 4-N-cyclohexyl-6-(2,3-dichlorophenyl)pyrimidine-2,4-diamine] | < 200 |
| CNc1cc(-c2ccc(C(=O)C(F)(F)F)cc2)nc(N)n1 [Example 327, 1-{4-[2-Amino-6-(methylamino)pyrimidin-4-yl]phenyl}-2,2,2-trifluoroethan-1-one] | < 200 |
| CS(=O)(=O)c1ccc(CCNc2cc(-c3cccc(Cl)c3Cl)nc(N)n2)cc1 [Example 445, 6-(2,3-dichlorophenyl)-4-N-[2-(4-methanesulfonylphenyl)ethyl]pyrimidine-2,4-diamine] | < 200 |
| Cc1c(Cl)cccc1-c1cc(NC(C)C)nc(N)n1 [Example 246, 6-(3-chloro-2-methylphenyl)-4-N-(propan-2-yl)pyrimidine-2,4-diamine] | < 200 |
| CNc1cc(-c2cccc(NC(=O)c3ccccc3O)c2)nc(N)n1 [Example 326, N-{3-[2-Amino-6-(methylamino)pyrimidin-4-yl]phenyl}-2-hydroxybenzamide] | < 200 |
| CCCNc1cc(-c2ccccc2)nc(N)n1 [Example 4, 6-phenyl-4-N-propylpyrimidine-2,4-diamine] | < 200 |
| CNc1cc(-c2ccc(OCC3CCNCC3)c(COC)c2)nc(N)n1 [Example 257, 6-[3-(methoxymethyl)-4-(piperidin-4-ylmethoxy)phenyl]-4-N-methylpyrimidine-2,4-diamine hydrochloride] | < 200 |
| COc1ccc(-c2cc(NC3CC3)nc(N)n2)cc1 [Example 18, 4-N-cyclopropyl-6-(4-methoxyphenyl)pyrimidine-2,4-diamine] | < 200 |
| CNc1cc(-c2ccc3[nH]ccc3c2)nc(N)n1 [Example 148, 6-(1H-indol-5-yl)-4-N-methylpyrimidine-2,4-diamine] | < 200 |
| Cc1noc(C)c1-c1cc(NCCc2ccc(Cl)cc2)nc(N)n1 [Example 453, 4-N-[2-(4-chlorophenyl)ethyl]-6-(dimethyl-1,2-oxazol-4-yl)pyrimidine-2,4-diamine] | < 200 |
| CNc1cc(-c2ccc(OC)c(C)c2)nc(N)n1 [Example 79, 6-(4-methoxy-3-methylphenyl)-4-N-methylpyrimidine-2,4-diamine] | < 200 |
| CNc1cc(-c2cc(OC)ccc2OC)nc(N)n1 [Example 203, 6-(2,5-dimethoxyphenyl)-4-N-methylpyrimidine-2,4-diamine] | < 200 |
| Cc1cccc(-c2cc(NCc3ccc4cn[nH]c4c3)nc(N)n2)c1C [Example 252, 6-(2,3-dimethylphenyl)-4-N-(1H-indazol-6-ylmethyl)pyrimidine-2,4-diamine] | < 200 |
| CNc1cc(-c2ccc(C(C)(C)O)cc2)nc(N)n1 [Example 173, 2-{4-[2-amino-6-(methylamino)pyrimidin-4-yl]phenyl}propan-2-ol] | < 200 |
| C=CS(=O)(=O)Nc1cccc(-c2cc(NC)nc(N)n2)c1 [Example 313, N-{3-[2-amino-6-(methylamino)pyrimidin-4-yl]phenyl}ethene-1-sulfonamide] | < 200 |
